# Assay results published in patent publication US6593299B1, “Compositions and methods for controlling pests” (priority 1999, dated 2003).
# Ends that are not written are not given here. Peptide text beside a SMILES is read from it.
# Key:
# [1] = system: Aedes aegypti larvae; assay: Feeding TMOF and analog peptides to mosquito larvae (LD50); type: in vivo; details: newly hatched larvae on autoclaved yeast 1 mg/ml, peptide 0 to 5.0 mg/ml, microtiter plates, 7 days
# Text: TMOF can traverse the gut epithelium, enter the hemolymph and bind a gut receptor (Borovsky, D. and F. Mahmood (1995) “Feeding the mosquito Aedes aegypti with TMOF and its analogs; effect on trypsin biosynthesis and egg development,” Regulatory Peptides 57:273-281.; Borovsky et al. (1994) “Characterization and localization of mosquito-gut receptors for trypsin modulating oostatic factor using complementary peptide immunochemistry”FASEB J. 8:350-355.). This characteristic permits the testing of TMOF and its analogues by feeding them to mosquito and other pest larvae. To find out if truncated TMOF peptides have an effect on larval growth and development, a series of peptides were synthesized and tested by feeding them to mosquito larvae at concentrations of 0 to 5.0 mg/ml (Table 2). Individual, newly hatched Aedes aegypti larvae were maintained in separate microtiter plate wells on a diet of autoclaved yeast (1 mg/ml). The diet was supplemented with TMOF peptides (Table 2). An identical number of larvae maintained on yeast served as a control. […] All control groups survived and larval growth and development was normal. Since larvae swallow only a small portion of the yeast particles adsorbed the peptides, it is assumed that approximately 1 to 20 ng are taken orally at the high concentrations.
# [2] = system: fourth instar Heliothis virescens; assay: Feeding TMOF analogs to fourth instar H. virescens: larval weight; type: in vivo; details: fourth instar larvae; for Weight Gain: 0.8 mg of analogue, 5 days; for Weight mg ± S.E.M. End: synthetic food and 0.8 mg of analogue, after 5 days; for Weight mg ± S.E.M. Start: weight before feeding (baseline)
# Protocol: (§1) Several analogues were chosen and were fed to fourth instar Heliothis virescens for seven (7) days and to first instars for fourteen (14) days (Tables 3 and 4). In both cases a reduction in weight gain and trypsin inhibition was noted (Tables 3 and 4).
# (§2) Individual first instar and fourth instar larvae of H. virescens were maintained in separate plastic cups and were fed on artificial diet blocks on which different concentrations of TMOF (0 to 1.6 mg) were adsorbed. Larvae were fed for 5 to 14 days and larval weight and trypsin activity were measured at the end of the experimental periods. […] When first instar larvae were fed for 14 days, an 18% and 26% reduction in weight was observed when analogues 15 and 16 were used (Table 4).
# Fourth instar larvae were weighed and fed on synthetic food and 0.8 mg of TMOF analogues for 5 days. […]. Results are average of 3 to 10 experiments S.E.M.
# [3] = system: first instar Heliothis virescens; assay: Feeding first instar H. virescens on TMOF analogs for 14 days; type: in vivo; design: Weight Reduction ± S.E.M.: concentration or dose not given beside the values; details: first instar larvae fed 14 days; for Weight Reduction ± S.E.M.: versus control
# Protocol: as §1, §2
# [4] = system: TTLE biosynthesis; assay: Feeding TMOF analogs to fourth instar H. virescens: gut trypsin (TTLE) biosynthesis by [3H]DFP; type: in vivo, Heliothis virescens; design: Trypsin: unit not given here; details: fourth instar larvae, 0.8 mg of analogue, 5 days; for Trypsin: guts incubated with [3H]DFP; for Inhibition (trypsin): versus control
compound,measurement,setting,value
"N[C@@H](CC(=O)O)C(=O)N[C@@H](Cc1ccc(O)cc1)C(=O)O [42. DY, DY] (H-Asp-Tyr-OH; N-terminus and C-terminus assumed)",LD50 + S.E.M.,[1],3.0 ± 0.8 mM
ADAAP (()..() TMOF analog) [ADAAP(12)],Weight Gain,[2],174.1 mg
same,Weight mg ± S.E.M. End,[2],209.7 ± 12 mg
same,Weight mg ± S.E.M. Start,[2],35.7 ± 1.5 mg
same,Number of Dead Larvae,[3],0
same,Weight ± S.E.M.,[3],141 ± 9 mg
same,Weight Reduction ± S.E.M.,[3],7 ± 0.4%
same,Trypsin,[4],2.4 ± 0.3
same,Inhibition (trypsin),[4],5 ± 0.6%
"ADPAP [21. ADPAP, ADPAP]",LD50 + S.E.M.,[1],2.0 ± 0.36 mM
"FDPAP [5. FDPAP, FDPAP]",LD50 + S.E.M.,[1],0.37 ± 0.15 mM
"MPDYPPPPP [2. MPDYP5, MPDYP5]",LD50 + S.E.M.,[1],>3.0 mM
"YAPAP [8. YAPAP, YAPAP]",LD50 + S.E.M.,[1],0.54 ± 0.13 mM
"YDAAP [15. YDAAP, YDAAP]",LD50 + S.E.M.,[1],1.0 ± 0.18 mM
same,Weight Gain,[2],179 mg
same,Weight mg ± S.E.M. End,[2],217 ± 9.5 mg
same,Weight mg ± S.E.M. Start,[2],38.2 ± 1.3 mg
same,Number of Dead Larvae,[3],0
same,Weight ± S.E.M.,[3],133 ± 7 mg
same,Weight Reduction ± S.E.M.,[3],18 ± 1%
same,Trypsin,[4],2.1 ± 0.2
same,Inhibition (trypsin),[4],17 ± 1.6%
"YDFAP [14. YDFAP, YDFAP]",LD50 + S.E.M.,[1],0.74 ± 0.13 mM
same,Weight Gain,[2],164 mg
same,Weight mg ± S.E.M. End,[2],201 ± 12 mg
same,Weight mg ± S.E.M. Start,[2],37 ± 1.3 mg
same,Number of Dead Larvae,[3],1
same,Weight ± S.E.M.,[3],121 ± 7 mg
same,Weight Reduction ± S.E.M.,[3],26 ± 1.5%
same,Trypsin,[4],2.1 ± 0.2
same,Inhibition (trypsin),[4],19 ± 1.5%
"YDLAP [13. YDLAP, YDLAP]",LD50 + S.E.M.,[1],0.6 ± 0.05 mM
"YDPAA [19. YDPAA, YDPAA]",LD50 + S.E.M.,[1],1.6 ± 0.13 mM
"YDPAF [3. YDPAF, YDPAF]",LD50 + S.E.M.,[1],0.33 ± 0.2 mM
"YDPAL [7. YDPAL, YDPAL]",LD50 + S.E.M.,[1],0.52 ± 0.03 mM
"YDPAP [12. YDPAP, YDPAP, reference compound]",LD50 + S.E.M.,[1],0.64 ± 0.03 mM
"YDPAPPPPPP [1. YDPAP6, YDPAP6, reference compound]",LD50 + S.E.M.,[1],0.2 ± 0.02 mM
"YDPFP [20. YDPFP, YDPFP]",LD50 + S.E.M.,[1],1.7 ± 0.4 mM
"YDPGP [16. YDPGP, YDPGP]",LD50 + S.E.M.,[1],1.1 ± 0.18 mM
same,Weight Gain,[2],163.1 mg
same,Weight mg ± S.E.M. End,[2],199.8 ± 11 mg
same,Weight mg ± S.E.M. Start,[2],31.7 ± 1.6 mg
same,Number of Dead Larvae,[3],2
same,Weight ± S.E.M.,[3],153 ± 10 mg
same,Weight Reduction ± S.E.M.,[3],6 ± 0.4%
same,Trypsin,[4],2.1 ± 0.1
same,Inhibition (trypsin),[4],17 ± 1%
"YDPLP [6. YDPLP, YDPLP]",LD50 + S.E.M.,[1],0.5 ± 0.04 mM
"YEPAP [4. YEPAP, YEPAP]",LD50 + S.E.M.,[1],0.35 ± 0.02 mM
"YFPAP [11. YFPAP, YFPAP]",LD50 + S.E.M.,[1],0.64 ± 0.03 mM
"YNPAP [9. YNPAP, YNPAP]",LD50 + S.E.M.,[1],0.55 ± 0.03 mM
